US9556228B2 (Universitaet Leipzig, priority 2011, dated 2017)
In brackets after ≈: the same amount, converted by molar mass. Entries after “also recorded” stand apart in the source; their conditions may differ. Peptide text beside a SMILES is read from it. * marks the point of attachment. Orn(α-tetramethylguanidino) = CN(C)C(=N[C@@H](CCCN)C(=O)*)N(C)C

Tests used:
[1] = system: S. aureus DSM 6247; type: cell-based, Staphylococcus aureus
Description: (§1) The minimum inhibitory concentrations (MIC) of the peptides were determined in a double assay of triplicates using a positive control sample (gentamycin) and a negative control sample (0.9% NaCl solution), according to a modified protocol from Wiegand et al. (Wiegand, 2008).
(§2) For this purpose, the peptides were dissolved in water and were diluted in a double dilution series with 1/8 MH (eight-fold diluted Mueller-Hinton-Medium—2.6 g/L, Merck) in sterile 96-well, plates (Greiner Bio-One GmbH) in twelve dilution steps from 128 μg/mL to 62.5 ng/mL. Overnight cultures were adjusted using ⅛ MHB to approximately 1.5×10^7 colony forming units per mL. Of these, 50 μL of peptide solution per well was mixed with 50 μL bacteria solution each to obtain an initial concentration of […] bacteria per well. After 20 hours of incubation at 37′C, the absorption was determined at 595 nm (microplate reader, Wallac Victor3, Perkin Elmer). The minimum inhibitory concentration was identified as the lowest peptide concentration at which no bacterial growth could be detected.
(§3) In the experiment, the antibacterial activity of the peptides according to the invention in relation to the following bacterial strains was analyzed: Pseudomonas aeruginosa PAO1 (wt strain), Pseudomonas aeruginosa DSM 9644, Staphylococcus aureus DSM 1104/ATCC 25923, Staphylococcus aureus ATCC 6247, Escherichia coli UB 1005 (F—, nalA37, metB1) and Escherichia coli ATCC25922.

[2] = system: E. coli DSM 1103; type: cell-based, Escherichia coli
Description: as §1, §2

[3] = system: Pseudomonas aeruginosa DSM 9644; type: cell-based
Description: as §1
as §2, with “For this purpose, the peptides were dissolved in water and were diluted in a double dilution series with 1/8 MH (eight-fold diluted Mueller-Hinton-Medium—2.6 g/L, Merck) in sterile 96-well, plates (Greiner Bio-One GmbH) in twelve dilution steps from 128 μg/mL to 62.5 ng/mL.” left out
as §3

[4] = system: E. coli BL21AI; type: cell-based, Escherichia coli
[5] = system: K. pneumoniae DSM 681; type: cell-based
Description: as §1
as §2, with “For this purpose, the peptides were dissolved in water and were diluted in a double dilution series with 1/8 MH (eight-fold diluted Mueller-Hinton-Medium—2.6 g/L, Merck) in sterile 96-well, plates (Greiner Bio-One GmbH) in twelve dilution steps from 128 μg/mL to 62.5 ng/mL.” left out

[6] = system: S. aureus DSM 6247; type: cell-based, Staphylococcus aureus; remark: listed apart in the source
[7] = in vitro; conditions: for half-life: mouse
Description: The serum stability of selected apidaecin derivatives was also measured.

[8] = system: Escherichia coli ATCC25922; type: cell-based
[9] = 25% mouse serum
[10] = 100% mouse serum

Compound | MIC S. aureus DSM 6247 [1] [µg/mL] | MIC E. coli DSM 1103 [2] [µg/mL] | MIC P. aeruginosa PAO DSM 9644 [3] [µg/mL] | MIC E. coli BL21AI TSB [4] [µg/mL] | MIC K. pneumoniae DSM 681 TSB [5] [µg/mL] | MIC S. aureus DSM 6247 MHB [6] [µg/mL] | MIC P. aeruginosa DSM 9644 TSB [3] [µg/mL] | MIC E. coli ATCC 25922 TSB [8] [µg/mL] | other results
CC[C@H](C)[C@H](NC(=O)[C@H](Cc1ccc(O)cc1)NC(=O)[C@@H](NC(=O)[C@@H]1CCCN1C(=O)[C@H](CCCNC(=N)N)NC(=O)[C@H](CC(N)=O)NC(=O)[C@H](CC(N)=O)NC(=O)[C@H](CCCN)N=C(N(C)C)N(C)C)C(C)C)C(=O)N1CCC[C@H]1C(=O)N[C@@H](CCCNC(=N)N)C(=O)N1CCC[C@H]1C(=O)N[C@@H](CCCNC(=N)N)C(=O)N1CCC[C@H]1C(=O)N1CCC[C@H]1C(=O)N[C@@H](Cc1c[nH]cn1)C(=O)N1CCC[C@H]1C(=O)N[C@@H](CCCNC(=N)N)C(=O)N[C@@H](CCCNC(=N)N)C(=O)O [compound 84] ({Orn(α-tetramethylguanidino)}-NNRPVYIPRPRPPHPRR-OH) | 8 (≈ 3.43 µM) | 4 (≈ 1.71 µM) | 64 (≈ 27.4 µM) |  |  |  |  |  | 
CC[C@H](C)[C@H](NC(=O)[C@H](Cc1ccc(O)cc1)NC(=O)[C@@H](NC(=O)[C@@H]1CCCN1C(=O)[C@H](CCCNC(=N)N)NC(=O)[C@H](CC(N)=O)NC(=O)[C@H](Cc1c[nH]c2ccccc12)NC(=O)[C@H](CCCN)N=C(N(C)C)N(C)C)C(C)C)C(=O)N1CCC[C@H]1C(=O)N[C@@H](CCCNC(=N)N)C(=O)N1CCC[C@H]1C(=O)N[C@@H](CCCNC(=N)N)C(=O)N1CCC[C@H]1C(=O)N1CCC[C@H]1C(=O)N[C@@H](Cc1c[nH]cn1)C(=O)N1CCC[C@H]1C(=O)N[C@@H](CCCNC(=N)N)C(=O)N[C@@H](CC(C)C)C(=O)O [compound 85] ({Orn(α-tetramethylguanidino)}-WNRPVYIPRPRPPHPRL-OH; N-terminus and C-terminus assumed) | 16 (≈ 6.77 µM) | 4 (≈ 1.69 µM) | 16 (≈ 6.77 µM) | 2 (≈ 0.846 µM) | 2 (≈ 0.846 µM) | 4 (≈ 1.69 µM) | 8 to 16 | 4 (≈ 1.69 µM) | half-life ([7]; 100% mouse serum): 3.95 ± 0.25 h
CC[C@H](C)[C@H](NC(=O)[C@H](Cc1ccc(O)cc1)NC(=O)[C@@H](NC(=O)[C@@H]1CCCN1C(=O)[C@H](CCCNC(=N)N)NC(=O)[C@H](CC(N)=O)NC(=O)[C@H](CC(N)=O)NC(=O)[C@H](CCCN)N=C(N(C)C)N(C)C)C(C)C)C(=O)N1CCC[C@H]1C(=O)N[C@@H](CCCNC(=N)N)C(=O)N1CCC[C@H]1C(=O)N[C@@H](CCCNC(=N)N)C(=O)N[C@@H](CCCNC(=N)N)C(=O)N1CCC[C@H]1C(=O)N[C@@H](Cc1c[nH]cn1)C(=O)N1CCC[C@H]1C(=O)N[C@@H](CCCNC(=N)N)C(=O)N[C@@H](CC(C)C)C(=O)O [compound 86] ({Orn(α-tetramethylguanidino)}-NNRPVYIPRPRRPHPRL-OH) | 32 (≈ 13.6 µM) | 8 (≈ 3.4 µM) | 32 (≈ 13.6 µM) |  |  |  |  |  | 
CC[C@H](C)[C@H](NC(=O)[C@H](Cc1ccc(O)cc1)NC(=O)[C@@H](NC(=O)[C@@H]1CCCN1C(=O)[C@H](CCCNC(=N)N)NC(=O)[C@H](CC(N)=O)NC(=O)[C@H](Cc1c[nH]c2ccccc12)NC(=O)[C@H](CCCN)N=C(N(C)C)N(C)C)C(C)C)C(=O)N1CCC[C@H]1C(=O)N[C@@H](CCCNC(=N)N)C(=O)N1CCC[C@H]1C(=O)N[C@@H](CCCNC(=N)N)C(=O)N[C@@H](CCCNC(=N)N)C(=O)N1CCC[C@H]1C(=O)N[C@@H](Cc1c[nH]cn1)C(=O)N1CCC[C@H]1C(=O)N[C@@H](CCCNC(=N)N)C(=O)N[C@@H](CC(C)C)C(=O)O [compound 87] ({Orn(α-tetramethylguanidino)}-WNRPVYIPRPRRPHPRL-OH; N-terminus and C-terminus assumed) | 16 (≈ 6.6 µM) | 8 (≈ 3.3 µM) | 8 (≈ 3.3 µM) | 8 (≈ 3.3 µM) | 4 to 8 | 4 (≈ 1.65 µM) | 8 (≈ 3.3 µM) | 8 (≈ 3.3 µM) | peptide remaining, printed in the column t1/2 100% serum ([7]; 100% mouse serum, after 2 hours): 0% after
CC[C@H](C)[C@H](NC(=O)[C@H](Cc1ccc(O)cc1)NC(=O)[C@@H](NC(=O)[C@@H]1CCCN1C(=O)[C@H](CCCNC(=N)N)NC(=O)[C@H](CC(N)=O)NC(=O)[C@H](CC(N)=O)NC(=O)[C@H](CCCN)N=C(N(C)C)N(C)C)C(C)C)C(=O)N1CCC[C@H]1C(=O)N[C@@H](CCCNC(=N)N)C(=O)N1CCC[C@H]1C(=O)N[C@@H](CCCNC(=N)N)C(=O)N[C@@H](CCCNC(=N)N)C(=O)N1CCC[C@H]1C(=O)N[C@@H](Cc1c[nH]cn1)C(=O)N1CCC[C@H]1C(=O)N[C@@H](CCCNC(=N)N)C(=O)N[C@@H](CC(C)C)C(N)=O [compound 88] ({Orn(α-tetramethylguanidino)}-NNRPVYIPRPRRPHPRL-NH2) | 16 (≈ 6.81 µM) | 8 (≈ 3.4 µM) | 16 (≈ 6.81 µM) |  |  |  |  |  | 
CC[C@H](C)[C@H](NC(=O)[C@H](Cc1ccc(O)cc1)NC(=O)[C@@H](NC(=O)[C@@H]1CCCN1C(=O)[C@H](CCCNC(=N)N)NC(=O)[C@H](CC(N)=O)NC(=O)[C@H](Cc1c[nH]c2ccccc12)NC(=O)[C@H](CCCN)N=C(N(C)C)N(C)C)C(C)C)C(=O)N1CCC[C@H]1C(=O)N[C@@H](CCCNC(=N)N)C(=O)N1CCC[C@H]1C(=O)N[C@@H](CCCNC(=N)N)C(=O)N[C@@H](CCCNC(=N)N)C(=O)N1CCC[C@H]1C(=O)N[C@@H](Cc1c[nH]cn1)C(=O)N1CCC[C@H]1C(=O)N[C@@H](CCCNC(=N)N)C(=O)N[C@@H](CC(C)C)C(N)=O [compound 89] ({Orn(α-tetramethylguanidino)}-WNRPVYIPRPRRPHPRL-NH2; N-terminus and C-terminus assumed) | 8 to 16 | 8 (≈ 3.3 µM) | 4 (≈ 1.65 µM) | 8 (≈ 3.3 µM) | >64 | 2 (≈ 0.826 µM) | 8 (≈ 3.3 µM) | 16 (≈ 6.61 µM) | half-life ([7]; 25% mouse serum): 0.267 ± 0.0167 h
CC[C@H](C)[C@H](NC(=O)[C@H](Cc1ccc(O)cc1)NC(=O)[C@@H](NC(=O)[C@@H]1CCCN1C(=O)[C@H](CCCNC(=N)N)NC(=O)[C@H](CC(N)=O)NC(=O)[C@H](CC(N)=O)NC(=O)[C@H](CCCN)N=C(N(C)C)N(C)C)C(C)C)C(=O)N1CCC[C@H]1C(=O)N[C@@H](CCCNC(=N)N)C(=O)N1CCC[C@H]1C(=O)N[C@@H](CCCNC(=N)N)C(=O)N1CCC[C@H]1C(=O)N1CCC[C@H]1C(=O)N[C@@H](Cc1c[nH]cn1)C(=O)N1CCC[C@H]1C(=O)N[C@@H](CCCNC(=N)N)C(=O)N[C@@H](CC(C)C)C(N)=O [compound 92] ({Orn(α-tetramethylguanidino)}-NNRPVYIPRPRPPHPRL-NH2; N-terminus and C-terminus assumed) |  |  |  | 1 (≈ 0.437 µM) | 2 (≈ 0.873 µM) | 8 (≈ 3.49 µM) | 8 (≈ 3.49 µM) | 2 (≈ 0.873 µM) | half-life ([7]; 25% mouse serum): 0.25 ± 0.0167 h
CC[C@H](C)[C@H](NC(=O)[C@H](Cc1ccc(O)cc1)NC(=O)[C@@H](NC(=O)[C@@H]1CCCN1C(=O)[C@H](CCCNC(=N)N)NC(=O)[C@H](CC(N)=O)NC(=O)[C@H](CC(N)=O)NC(=O)[C@H](CCCN)N=C(N(C)C)N(C)C)C(C)C)C(=O)N1CCC[C@H]1C(=O)N[C@@H](CCCNC(=N)N)C(=O)N1CCC[C@H]1C(=O)N[C@@H](CCCNC(=N)N)C(=O)N1CCC[C@H]1C(=O)N1CCC[C@H]1C(=O)N[C@@H](Cc1c[nH]cn1)C(=O)N1CCC[C@H]1C(=O)N[C@@H](CCCNC(=N)N)C(=O)N[C@@H](CC(C)C)C(=O)O [compound 93] ({Orn(α-tetramethylguanidino)}-NNRPVYIPRPRPPHPRL-OH; N-terminus and C-terminus assumed) |  |  |  | 1 (≈ 0.436 µM) | 2 (≈ 0.873 µM) | 16 to 32 | 16 (≈ 6.98 µM) | 4 (≈ 1.75 µM) | half-life ([7]; 100% mouse serum): 5.83 ± 0.567 h
gu-ONNRPVYIPRPRPPHPRL-NH2 |  |  |  |  |  |  |  |  | fragment found [9]: gu-O1-R17
gu-ONNRPVYIPRPRPPHPRL-OH |  |  |  |  |  |  |  |  | fragment found [10]: gu-O1-R17
gu-OWNRPVYIPRPRPPHPRL-OH |  |  |  |  |  |  |  |  | fragment found [10]: gu-O1-R17
gu-OWNRPVYIPRPRRPHPRL-NH2 |  |  |  |  |  |  |  |  | fragment found [9]: gu-O1-R17; also recorded: gu-O1-R12
gu-OWNRPVYIPRPRRPHPRL-OH |  |  |  |  |  |  |  |  | fragment found [10]: gu-O1-R12 (Api341 analogue)
